Earlier results in patent US20110224245A1, “Treatment Of Neurological Disorders Using Huperzine” (President and Fellows of Harvard College, priority 2008, published 2011).

Tested on: 6 Hz seizures
Details: established antiepileptic drugs; cited from earlier work

| Compound | efficacy in the 6 Hz psychomotor seizure model |
| --- | --- |
| NC(=O)N1c2ccccc2C=Cc2ccccc21 [carbamazepine] | limited efficacy |
| Nc1nnc(-c2cccc(Cl)c2Cl)c(N)n1 [lamotrigine] | limited efficacy |
| O=C1NC(=O)C(c2ccccc2)(c2ccccc2)N1 [phenyloin] | limited efficacy |
| CC1(C)O[C@@H]2[C@@H](CO[C@@]3(COS(N)(=O)=O)OC(C)(C)O[C@@H]23)O1 [topiramate] | limited efficacy |
